Assay [1] concerns the target T1, Human CD73 (amino acid residues 27-549) (Homo sapiens, UniProt P21589).
T1 construct: Human CD73 (amino acid residues 27-549); His tag (N); made in house; host or cells: E. coli
T1 sequence (P21589 27-549): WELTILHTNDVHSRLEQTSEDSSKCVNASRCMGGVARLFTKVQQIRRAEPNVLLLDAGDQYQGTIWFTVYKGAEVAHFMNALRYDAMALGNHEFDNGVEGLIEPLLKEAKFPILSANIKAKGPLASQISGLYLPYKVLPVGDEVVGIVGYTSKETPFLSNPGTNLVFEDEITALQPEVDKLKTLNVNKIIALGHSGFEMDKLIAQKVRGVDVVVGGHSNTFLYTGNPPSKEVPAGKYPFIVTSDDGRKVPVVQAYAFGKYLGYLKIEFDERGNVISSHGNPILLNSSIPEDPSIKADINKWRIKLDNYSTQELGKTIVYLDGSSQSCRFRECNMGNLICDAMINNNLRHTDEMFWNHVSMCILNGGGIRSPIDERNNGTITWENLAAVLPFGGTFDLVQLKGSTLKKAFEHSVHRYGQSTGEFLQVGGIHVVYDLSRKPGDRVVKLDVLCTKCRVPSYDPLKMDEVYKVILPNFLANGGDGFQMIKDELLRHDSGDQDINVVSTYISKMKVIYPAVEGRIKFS
In words: CD73 enzymatic assay (luciferase-based indirect assay, CellTiter-Glo). The format is biochemical. As to conditions: 0.4 nM CD73, 150 μM AMP, 1 hour at room temperature. Put shortly: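 Residual AMP inhibits luciferase, so luminescence reports CD73 turnover; read with CellTiter-Glo 2.0 plus 1 μM final ATP, 30 min. Reaction used 0.4 nM N-His CD73 (27-549, E. coli), 150 μM AMP, HEPES pH 7.4 with Tween 20, 1 h at room temperature. IC50 fitted by nonlinear regression.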

Another assay addresses T2, human CD73 (Homo sapiens, UniProt P21589).
T2 construct: expressed in transfected cells
T2 sequence (P21589 27-549): T1 sequence (P21589 27-549)
The assay is described as follows: Inhibitor activity against CD73 in cell based assay (CD73 expressing CHO-K1 cells). As to conditions: CHO-K1 cells expressing human CD73, 150 μM AMP, 4 hours of incubation; read-out: CHO-K1 CELL VARIANT: CD73 IC50. In short, it runs like this:
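Residual supernatant AMP was quantified via CellTiter-Glo luminescence (1 μM ATP added, 30 min, room temperature) after a 4 h exposure of human CD73-expressing CHO-K1 cells to 150 μM AMP plus compound, top final 10 μM, 8 points. IC50 came from nonlinear regression of percent inhibition.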

Broadly, the IC50 is the concentration that gives 50% inhibition. Turning to `N#Cc1c(N2CC[C@@H](OC(=O)NC3CCCCC3)C2)cnn(CCO)c1=O` [P-0473, (R)-1-(5-cyano-1-(2-hydroxyethyl)-6-oxo-1,6-dihydropyridazin-4-yl)pyrrolidin-3-yl cyclohexylcarbamate], the IC50 (in assay [1]; at human CD73) was 0.001 to 10 µM throughout.

As to `O=C(NC1CCC(F)(F)CC1)O[C@H]1CN(c2cnn(CCO)c(=O)c2Cl)C[C@@H]1F` [P-0474, (3S,4S)-1-(5-chloro-1-(2-hydroxyethyl)-6-oxo-1,6-dihydropyridazin-4-yl)-4-fluoropyrrolidin-3-yl (4,4-difluorocyclohexyl)carbamate], the IC50 (in assay [1]; on human CD73) was 0.001 to 10 µM in each case.

On to `O=C(NC1CCCC1)O[C@H]1CN(c2cnn(CCO)c(=O)c2Cl)C[C@@H]1F` [P-0475, (3S,4S)-1-(5-chloro-1-(2-hydroxyethyl)-6-oxo-1,6-dihydropyridazin-4-yl)-4-fluoropyrrolidin-3-yl cyclopentylcarbamate], for which the IC50 (in assay [1]; at human CD73) was 0.001 to 10 µM in each case.

`N#CC1(NC(=O)O[C@@H]2CCN(c3cnn(CCO)c(=O)c3Cl)C2)CCCC1` [P-0476, (R)-1-(5-chloro-1-(2-hydroxyethyl)-6-oxo-1,6-dihydropyridazin-4-yl)pyrrolidin-3-yl (1-cyanocyclopentyl)carbamate]: the IC50 (in assay [1]; on human CD73) was 0.001 to 10 µM in each case.

In the case of `O=C(N[C@@H]1CCC[C@H]1O)O[C@@H]1CCN(c2cnn(CCO)c(=O)c2Cl)C1` [P-0477, (R)-1-(5-chloro-1-(2-hydroxyethyl)-6-oxo-1,6-dihydropyridazin-4-yl)pyrrolidin-3-yl ((1R,2R)-2-hydroxycyclopentyl)carbamate], the IC50 (in assay [1]; on human CD73) was 0.001 to 10 µM throughout.

In the case of `O=C(N[C@@H]1CCC[C@@H]1C(F)(F)F)O[C@@H]1CCN(c2cnn(CCO)c(=O)c2Cl)C1` [P-0478, (R)-1-(5-chloro-1-(2-hydroxyethyl)-6-oxo-1,6-dihydropyridazin-4-yl)pyrrolidin-3-yl ((1R,2S)-2-(trifluoromethyl)cyclopentyl) carbamate], the half-inhibitory concentration (IC50) (in assay [1]; at human CD73) was 0.001 to 10 µM throughout.

As for `O=C(NC1CCCC(F)(F)C1)O[C@@H]1CCN(c2cnn(CCO)c(=O)c2Cl)C1` (stereo partly drawn) [P-0479, (R)-1-(5-chloro-1-(2-hydroxyethyl)-6-oxo-1,6-dihydropyridazin-4-yl)pyrrolidin-3-yl (3,3-difluorocyclohexyl)carbamate], the IC50 (in assay [1]; at human CD73) was 0.001 to 10 µM throughout.

`O=C(NC1(C2CC2)CC1)O[C@@H]1CCN(c2cnn(CCO)c(=O)c2Cl)C1` [P-0480, (R)-1-(5-chloro-1-(2-hydroxyethyl)-6-oxo-1,6-dihydropyridazin-4-yl)pyrrolidin-3-yl [1,1′-bi(cyclopropan)]-1-ylcarbamate]: the IC50 (in assay [1]; at human CD73) was 0.001 to 10 µM throughout.

`O=C(N[C@@H]1CCC[C@@H]1O)O[C@@H]1CCN(c2cn[nH]c(=O)c2Cl)C1` [P-0481, (R)-1-(5-chloro-6-oxo-1,6-dihydropyridazin-4-yl)pyrrolidin-3-yl ((1R,2S)-2-hydroxycyclopentyl)carbamate]: the concentration for half-maximal inhibition (IC50) (in assay [1]; at human CD73) was 0.001 to 10 µM each time.

For the molecule `O=C(N[C@H]1CC[C@@H](NC2CCC(F)(F)CC2)CC1)O[C@@H]1CCN(c2cn[nH]c(=O)c2Cl)C1` [P-0482, (R)-1-(5-chloro-6-oxo-1,6-dihydropyridazin-4-yl)pyrrolidin-3-yl ((1s,4S)-4-((4,4-difluorocyclohexyl)amino)cyclohexyl)carbamate], the concentration for half-maximal inhibition (IC50) (in assay [1]; at human CD73) was 0.001 to 10 µM each time.

Turning to `N#Cc1c(N2C[C@H](OC(=O)NC3CCC(F)(F)CC3)[C@@H](F)C2)cn[nH]c1=O` [P-0483, (3S,4S)-1-(5-cyano-6-oxo-1,6-dihydropyridazin-4-yl)-4-fluoropyrrolidin-3-yl (4,4-difluorocyclohexyl)carbamate], the IC50 (in assay [1]; at human CD73) was 0.001 to 10 µM in each case.

Consider `N#Cc1c(N2C[C@H](OC(=O)NC3CCCC3)[C@@H](F)C2)cn[nH]c1=O` [P-0484, (3S,4S)-1-(5-cyano-6-oxo-1,6-dihydropyridazin-4-yl)-4-fluoropyrrolidin-3-yl cyclopentylcarbamate], for which the IC50 (in assay [1]; at human CD73) was 0.001 to 10 µM each time.

Turning to `N#Cc1c(N2C[C@H](OC(=O)NC3CCC(F)(F)CC3)[C@@H](F)C2)cnn(CCO)c1=O` [P-0485, (3S,4S)-1-(5-cyano-1-(2-hydroxyethyl)-6-oxo-1,6-dihydropyridazin-4-yl)-4-fluoropyrrolidin-3-yl (4,4-difluorocyclohexyl)carbamate], the half-maximal inhibitory concentration (IC50) (in assay [1]; at human CD73) was 0.001 to 10 µM in each case.

Consider `N#Cc1c(N2C[C@H](OC(=O)NC3CCCC3)[C@@H](F)C2)cnn(CCO)c1=O` [P-0486, (3S,4S)-1-(5-cyano-1-(2-hydroxyethyl)-6-oxo-1,6-dihydropyridazin-4-yl)-4-fluoropyrrolidin-3-yl cyclopentylcarbamate], for which the half-inhibitory concentration (IC50) (in assay [1]; on human CD73) was 0.001 to 10 µM in each case.

Take `O=C(N[C@H]1CC[C@@H](NC2CCOCC2)CC1)O[C@@H]1CCN(c2cn[nH]c(=O)c2Cl)C1` [P-0487, (R)-1-(5-chloro-6-oxo-1,6-dihydropyridazin-4-yl)pyrrolidin-3-yl ((1s,4S)-4-((tetrahydro-2H-pyran-4-yl)amino)cyclohexyl)carbamate]: the 50% inhibitory concentration (IC50) (in assay [1]; at human CD73) was 0.001 to 10 µM throughout.

Turning to `O=C(N[C@H]1CC[C@@H](NC2CC3CCC2C3)CC1)O[C@@H]1CCN(c2cn[nH]c(=O)c2Cl)C1` (stereo partly drawn) [P-0488, (R)-1-(5-chloro-6-oxo-1,6-dihydropyridazin-4-yl)pyrrolidin-3-yl ((1R,4S)-4-(((1S,4R)-bicyclo[2.2.1]heptan-2-yl)amino)cyclohexyl)carbamate], the IC50 (in assay [1]; at human CD73) was 0.001 to 10 µM each time.

As for `O=C(N[C@H]1CC[C@@H](NC2CCS(=O)(=O)CC2)CC1)O[C@@H]1CCN(c2cn[nH]c(=O)c2Cl)C1` [P-0489, (R)-1-(5-chloro-6-oxo-1,6-dihydropyridazin-4-yl)pyrrolidin-3-yl ((1s,4S)-4-((1,1-dioxidotetrahydro-2H-thiopyran-4-yl)amino)cyclohexyl)carbamate], the IC50 (in assay [1]; at human CD73) was 0.001 to 10 µM throughout.

Take `O=C(NC1CCN(C(=O)Nc2ccc(F)cc2F)CC1)O[C@@H]1CCN(c2cn[nH]c(=O)c2Cl)C1` [P-0490, (R)-1-(5-chloro-6-oxo-1,6-dihydropyridazin-4-yl)pyrrolidin-3-yl (1-((2,4-difluorophenyl)carbamoyl)piperidin-4-yl)carbamate]: the IC50 (in assay [1]; at human CD73) was 0.001 to 10 µM each time.

For the molecule `O=C(NC1CCN(C(=O)Nc2cc(F)ccc2F)CC1)O[C@@H]1CCN(c2cn[nH]c(=O)c2Cl)C1` [P-0491, (R)-1-(5-chloro-6-oxo-1,6-dihydropyridazin-4-yl)pyrrolidin-3-yl (1-((2,5-difluorophenyl)carbamoyl)piperidin-4-yl)carbamate], the IC50 (in assay [1]; on human CD73) was 0.001 to 10 µM throughout.

In the case of `O=C(NC1CCN(C(=O)Nc2ccc(OC(F)(F)F)cc2)CC1)O[C@@H]1CCN(c2cn[nH]c(=O)c2Cl)C1` [P-0492, (R)-1-(5-chloro-6-oxo-1,6-dihydropyridazin-4-yl)pyrrolidin-3-yl (1-((4-(trifluoromethoxy)phenyl)carbamoyl)piperidin-4-yl) carbamate], the IC50 (in assay [1]; at human CD73) was 0.001 to 10 µM each time.

Regarding `O=C(NC1CCN(C(=O)Nc2cccc(OC(F)F)c2)CC1)O[C@@H]1CCN(c2cn[nH]c(=O)c2Cl)C1` [P-0493, (R)-1-(5-chloro-6-oxo-1,6-dihydropyridazin-4-yl)pyrrolidin-3-yl (1-((3-(difluoromethoxy)phenyl)carbamoyl)piperidin-4-yl) carbamate], the IC50 (in assay [1]; on human CD73) was 0.001 to 10 µM each time.

As to `O=C(NC1CCN(C(=O)Nc2ccccc2Cl)CC1)O[C@@H]1CCN(c2cn[nH]c(=O)c2Cl)C1` [P-0494, (R)-1-(5-chloro-6-oxo-1,6-dihydropyridazin-4-yl)pyrrolidin-3-yl (1-((2-chlorophenyl)carbamoyl)piperidin-4-yl)carbamate], the IC50 (in assay [1]; on human CD73) was 0.001 to 10 µM in each case.

In the case of `O=C(NC1CCN(C(=O)Nc2cc(Cl)cc(Cl)c2)CC1)O[C@@H]1CCN(c2cn[nH]c(=O)c2Cl)C1` [P-0495, (R)-1-(5-chloro-6-oxo-1,6-dihydropyridazin-4-yl)pyrrolidin-3-yl (1-((3,5-dichlorophenyl)carbamoyl)piperidin-4-yl)carbamate], the IC50 (in assay [1]; at human CD73) was 0.001 to 10 µM throughout.

The values are drawn from patent US12509444B2, “Compounds and methods for CD73 modulation and indications therefor” (Plexxikon Inc., priority 2019, dated 2025).
